From publication PMC3180450, “Structural Insights into the Mechanism of Protein O-Fucosylation” (PLoS ONE, 2011)
Changes are numbered by the printed parent chain. Read-outs that look alike come from different tables or passages of the source.

Tests used:
Assay type in all cases: binding
[1] = target: T1, CePOFUT1 (Caenorhabditis elegans, UniProt Q18014); experiment: thermal shift assay (ANS fluorescence)
T1 construct: gene pfut-1; codon-optimized synthetic gene in pPICZalphaA with KEX2 cleavage signal, secreted from Pichia pastoris X-33; monomer
T1 sequence (Q18014 26-382): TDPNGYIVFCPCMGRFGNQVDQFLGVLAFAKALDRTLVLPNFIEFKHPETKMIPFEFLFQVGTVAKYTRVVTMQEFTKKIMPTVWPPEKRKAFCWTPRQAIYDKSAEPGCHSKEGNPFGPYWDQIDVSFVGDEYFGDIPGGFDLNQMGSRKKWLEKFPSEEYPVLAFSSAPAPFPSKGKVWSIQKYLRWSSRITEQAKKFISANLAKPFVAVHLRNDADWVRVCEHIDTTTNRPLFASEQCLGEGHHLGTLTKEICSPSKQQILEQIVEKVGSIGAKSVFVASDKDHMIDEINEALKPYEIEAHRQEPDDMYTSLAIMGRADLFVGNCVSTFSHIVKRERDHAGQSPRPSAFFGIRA
Text: (§1) thermal shift assay (ANS fluorescence) on CePOFUT1

[2] = target: T1, CePOFUT1; experiment: isothermal titration calorimetry; details: read-out: K d (μM)GDP-fucose
Text: (§2) isothermal titration calorimetry on CePOFUT1

[3] = target: T2, CePOFUT1 (Caenorhabditis elegans, UniProt Q18014, D309N); experiment: thermal shift assay (ANS fluorescence); details: read-out: ΔT m (°C)1 mM GDP
T2 construct: gene pfut-1; codon-optimized synthetic gene in pPICZalphaA with KEX2 cleavage signal, secreted from Pichia pastoris X-33; monomer
T2 sequence (Q18014 26-382 D309N): T1 sequence (Q18014 26-382) with D284N
Text: as §1

[4] = target: T3, CePOFUT1 (Caenorhabditis elegans, UniProt Q18014, D242A); experiment: isothermal titration calorimetry
T3 construct: gene pfut-1; codon-optimized synthetic gene in pPICZalphaA with KEX2 cleavage signal, secreted from Pichia pastoris X-33; monomer
T3 sequence (Q18014 26-382 D242A): T1 sequence (Q18014 26-382) with D217A
Text: as §2

[5] = target: T4, CePOFUT1 (Caenorhabditis elegans, UniProt Q18014, D244A); experiment: isothermal titration calorimetry
T4 construct: gene pfut-1; codon-optimized synthetic gene in pPICZalphaA with KEX2 cleavage signal, secreted from Pichia pastoris X-33; monomer
T4 sequence (Q18014 26-382 D244A): T1 sequence (Q18014 26-382) with D219A
Text: as §2

[6] = target: T5, CePOFUT1 (Caenorhabditis elegans, UniProt Q18014, F199A); experiment: isothermal titration calorimetry
T5 construct: gene pfut-1; codon-optimized synthetic gene in pPICZalphaA with KEX2 cleavage signal, secreted from Pichia pastoris X-33; monomer
T5 sequence (Q18014 26-382 F199A): T1 sequence (Q18014 26-382) with F174A
Text: as §2

[7] = target: T6, CePOFUT1 (Caenorhabditis elegans, UniProt Q18014, F261A); experiment: isothermal titration calorimetry
T6 construct: gene pfut-1; codon-optimized synthetic gene in pPICZalphaA with KEX2 cleavage signal, secreted from Pichia pastoris X-33; monomer
T6 sequence (Q18014 26-382 F261A): T1 sequence (Q18014 26-382) with F236A
Text: as §2

[8] = target: T7, CePOFUT1 (Caenorhabditis elegans, UniProt Q18014, F357A); experiment: isothermal titration calorimetry
T7 construct: gene pfut-1; codon-optimized synthetic gene in pPICZalphaA with KEX2 cleavage signal, secreted from Pichia pastoris X-33; monomer
T7 sequence (Q18014 26-382 F357A): T1 sequence (Q18014 26-382) with F332A
Text: as §2

[9] = target: T8, CePOFUT1 (Caenorhabditis elegans, UniProt Q18014, N43A); experiment: isothermal titration calorimetry
T8 construct: gene pfut-1; codon-optimized synthetic gene in pPICZalphaA with KEX2 cleavage signal, secreted from Pichia pastoris X-33; monomer
T8 sequence (Q18014 26-382 N43A): T1 sequence (Q18014 26-382) with N18A
Text: as §2

[10] = target: T9, CePOFUT1 (Caenorhabditis elegans, UniProt Q18014, R240K); experiment: isothermal titration calorimetry
T9 construct: gene pfut-1; codon-optimized synthetic gene in pPICZalphaA with KEX2 cleavage signal, secreted from Pichia pastoris X-33; monomer
T9 sequence (Q18014 26-382 R240K): T1 sequence (Q18014 26-382) with R215K
Text: as §2

[11] = target: T10, CePOFUT1 (Caenorhabditis elegans, UniProt Q18014, R40A); experiment: isothermal titration calorimetry
T10 construct: gene pfut-1; codon-optimized synthetic gene in pPICZalphaA with KEX2 cleavage signal, secreted from Pichia pastoris X-33; monomer
T10 sequence (Q18014 26-382 R40A): T1 sequence (Q18014 26-382) with R15A
Text: as §2

[12] = target: T11, CePOFUT1 (Caenorhabditis elegans, UniProt Q18014, W245A); experiment: isothermal titration calorimetry
T11 construct: gene pfut-1; codon-optimized synthetic gene in pPICZalphaA with KEX2 cleavage signal, secreted from Pichia pastoris X-33; monomer
T11 sequence (Q18014 26-382 W245A): T1 sequence (Q18014 26-382) with W220A
Text: as §2

Row | SMILES | ΔTm at 1000 µM ([1]; read-out: ΔT m (°C)1 mM GDP-fucose) [°C] | Kd [2] [µM] | ΔTm at 1000 µM ([1]; read-out: ΔT m (°C)1 mM GDP) [°C] | ΔTm at 1000 µM [3] [°C] | Kd [4] [nM] | Kd [5] [nM] | Kd [6] [nM] | Kd [7] [nM] | Kd [8] [nM] | Kd [9] [nM] | Kd [10] [nM] | Kd [11] [nM] | Kd [12] [nM]
1 | C[C@@H]1O[C@H](OP(=O)(O)OP(=O)(O)OC[C@H]2O[C@@H](n3cnc4c(=O)[nH]c(N)nc43)[C@H](O)[C@@H]2O)[C@@H](O)[C@H](O)[C@@H]1O [GDP-fucose] | 2.19 | 0.23 ± 0.04 | – | – | – | – | – | – | – | – | – | – | –
2 | Nc1nc2c(ncn2[C@@H]2O[C@H](COP(=O)(O)OP(=O)(O)O)[C@@H](O)[C@H]2O)c(=O)[nH]1 [GDP] | – | – | 4.21 | 5.01 | 90 ± 20 | 100 ± 10 | 180 ± 30 | 120 ± 70 | 26900 ± 5000 | 300 ± 90 | 61200 ± 10500 | 3100 ± 530 | 1600 ± 400
